Source: PMC4928982 (Science Advances, 2016)
Residues, ends and D or L forms follow the SMILES beside them.

Key:
[1] = test system: human placental explants (syncytiotrophoblast); test: Peptide-binding assay with human placental explants; assay type: cell-based; conditions: peptide 20 μM, 0 to 3 hours
[2] = test system: mouse placenta (maternofetal interface); assay type: in vivo, BALB/c mice; conditions: 200 μg, tail vein, cardiac perfusion
[3] = test system: human first-trimester placental explants (CTB)

## FAM-ARALPSQRSR [reference compound]
[1]
  binding to human placenta (first-trimester and term explants): did not bind to the syncytium of human placenta or to other cellular components
[2]; pregnant mice E11.5 to E17.5, 3 hours, fluorescence microscopy, n = 3 placentas from n = 4 mice
  binding at the murine maternofetal interface: did not target the maternofetal interface

## Cys-Arg-Gly-Asp-Lys-Gly-Pro-Asp-Cys (disulfide) [iRGD]
[3]
  basal rates of CTB proliferation (Ki67): did not alter
  rate of CTB apoptosis (M30): modestly reduced

## Cys-Gly-Lys-Arg-Lys [CGKRK]
[3]
  basal rates of CTB proliferation (Ki67): did not alter

## N=C(N)NCCC[C@H](NC(=O)[C@H](CCCCN)NC(=O)CNC(=O)[C@H](CS)NC(=O)c1ccc2c(c1)C(=O)OC21c2ccc(O)cc2Oc2cc(O)ccc21)C(=O)N[C@@H](CCCCN)C(=O)O [FAM-CGKRK] (HELM PEPTIDE1{[O=C1OC2(c3ccc(O)cc3Oc3cc(O)ccc32)c2ccc(C(=O)[*:2])cc21].C.G.K.R.K}$$$$V2.0)
[2]; pregnant mice, 3 hours, confocal microscopy (fig. S1)
  accumulation in maternal organs: do not accumulate in maternal organs of pregnant mice
